The kinase profiling compilation of Christmann-Franck et al. (2016)

Columns and labels:
Assay in all cases: radiometric filter-binding kinase assay, Kinase HotSpot
[1] = biological target: ABL1 (human) (UniProt P00519); settings: compound 0.5 µM; ATP 10 µM
[2] = biological target: ABL2 (human) (UniProt P42684); settings: compound 0.5 µM; ATP 10 µM
[3] = biological target: AKT2 (human) (UniProt P31751); settings: compound 0.5 µM; ATP 10 µM
[4] = biological target: CAMKK1 (human) (UniProt Q8N5S9); settings: compound 0.5 µM; ATP 10 µM
[5] = biological target: CDK1 CCNB1 (human) (UniProt P06493+P14635); settings: compound 0.5 µM
[6] = biological target: CDK5 CDK5R1 p35 (human) (UniProt Q00535+Q15078); settings: compound 0.5 µM
[7] = biological target: CLK4 (human) (UniProt Q9HAZ1); settings: compound 0.5 µM; ATP 10 µM
[8] = biological target: CSNK2A2 (human) (UniProt P19784); settings: compound 0.5 µM; ATP 10 µM
[9] = biological target: DYRK1A (human) (UniProt Q13627); settings: compound 0.5 µM; ATP 10 µM
[10] = biological target: EPHA7 (human) (UniProt Q15375); settings: compound 0.5 µM; ATP 10 µM
Chain of EPHA7 (human) (Q15375 whole entry, looked up): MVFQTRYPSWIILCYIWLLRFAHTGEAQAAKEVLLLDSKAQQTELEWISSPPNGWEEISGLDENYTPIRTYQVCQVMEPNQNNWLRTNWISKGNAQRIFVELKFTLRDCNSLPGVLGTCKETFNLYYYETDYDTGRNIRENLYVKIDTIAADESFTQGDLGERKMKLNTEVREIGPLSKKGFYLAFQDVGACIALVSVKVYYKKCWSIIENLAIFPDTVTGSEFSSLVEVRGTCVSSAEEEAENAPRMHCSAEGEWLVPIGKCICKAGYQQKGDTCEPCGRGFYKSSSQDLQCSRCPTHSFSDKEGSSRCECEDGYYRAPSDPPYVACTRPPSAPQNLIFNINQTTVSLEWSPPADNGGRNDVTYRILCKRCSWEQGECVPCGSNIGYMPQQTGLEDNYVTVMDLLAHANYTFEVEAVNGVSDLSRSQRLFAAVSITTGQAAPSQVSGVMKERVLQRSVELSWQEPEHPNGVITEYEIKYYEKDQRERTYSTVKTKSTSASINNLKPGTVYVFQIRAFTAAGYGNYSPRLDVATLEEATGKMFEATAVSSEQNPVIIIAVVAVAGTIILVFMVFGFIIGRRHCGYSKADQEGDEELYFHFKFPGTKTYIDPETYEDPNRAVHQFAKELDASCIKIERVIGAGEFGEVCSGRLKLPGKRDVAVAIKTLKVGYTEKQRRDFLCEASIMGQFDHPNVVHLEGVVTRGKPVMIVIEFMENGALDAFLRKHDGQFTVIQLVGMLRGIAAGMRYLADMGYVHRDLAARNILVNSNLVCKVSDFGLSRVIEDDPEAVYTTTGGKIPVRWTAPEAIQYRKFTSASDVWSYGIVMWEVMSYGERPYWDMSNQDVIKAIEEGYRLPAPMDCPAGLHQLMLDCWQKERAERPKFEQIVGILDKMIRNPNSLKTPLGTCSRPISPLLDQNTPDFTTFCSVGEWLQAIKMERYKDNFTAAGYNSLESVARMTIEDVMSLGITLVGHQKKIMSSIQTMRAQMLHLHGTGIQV

[11] = biological target: EPHB1 (human) (UniProt P54762); settings: compound 0.5 µM; ATP 10 µM
[12] = biological target: FGFR1 (human) (UniProt P11362); settings: compound 0.5 µM; ATP 10 µM
[13] = biological target: FGFR4 (human) (UniProt P22455); settings: compound 0.5 µM; ATP 10 µM
[14] = biological target: FLT1 (human) (UniProt P17948); settings: compound 0.5 µM; ATP 10 µM
[15] = biological target: IGF1R (human) (UniProt P08069); settings: compound 0.5 µM
[16] = biological target: INSR (human) (UniProt P06213); settings: compound 0.5 µM; ATP 10 µM
[17] = biological target: LIMK1 (human) (UniProt P53667); settings: compound 0.5 µM; ATP 10 µM
[18] = biological target: LRRK2 (human) (UniProt Q5S007); settings: compound 0.5 µM; ATP 10 µM
[19] = biological target: MAP4K2 (human) (UniProt Q12851); settings: compound 0.5 µM; ATP 10 µM
[20] = biological target: MAPK10 (human) (UniProt P53779); settings: compound 0.5 µM; ATP 10 µM
[21] = biological target: MAPK14 (human) (UniProt Q16539); settings: compound 0.5 µM; ATP 10 µM
[22] = biological target: MARK3 (human) (UniProt P27448); settings: compound 0.5 µM; ATP 10 µM
[23] = biological target: NEK11 (human) (UniProt Q8NG66); settings: compound 0.5 µM; ATP 10 µM
[24] = biological target: NTRK2 (human) (UniProt Q16620); settings: compound 0.5 µM; ATP 10 µM
Chain of NTRK2 (human) (Q16620 whole entry, looked up): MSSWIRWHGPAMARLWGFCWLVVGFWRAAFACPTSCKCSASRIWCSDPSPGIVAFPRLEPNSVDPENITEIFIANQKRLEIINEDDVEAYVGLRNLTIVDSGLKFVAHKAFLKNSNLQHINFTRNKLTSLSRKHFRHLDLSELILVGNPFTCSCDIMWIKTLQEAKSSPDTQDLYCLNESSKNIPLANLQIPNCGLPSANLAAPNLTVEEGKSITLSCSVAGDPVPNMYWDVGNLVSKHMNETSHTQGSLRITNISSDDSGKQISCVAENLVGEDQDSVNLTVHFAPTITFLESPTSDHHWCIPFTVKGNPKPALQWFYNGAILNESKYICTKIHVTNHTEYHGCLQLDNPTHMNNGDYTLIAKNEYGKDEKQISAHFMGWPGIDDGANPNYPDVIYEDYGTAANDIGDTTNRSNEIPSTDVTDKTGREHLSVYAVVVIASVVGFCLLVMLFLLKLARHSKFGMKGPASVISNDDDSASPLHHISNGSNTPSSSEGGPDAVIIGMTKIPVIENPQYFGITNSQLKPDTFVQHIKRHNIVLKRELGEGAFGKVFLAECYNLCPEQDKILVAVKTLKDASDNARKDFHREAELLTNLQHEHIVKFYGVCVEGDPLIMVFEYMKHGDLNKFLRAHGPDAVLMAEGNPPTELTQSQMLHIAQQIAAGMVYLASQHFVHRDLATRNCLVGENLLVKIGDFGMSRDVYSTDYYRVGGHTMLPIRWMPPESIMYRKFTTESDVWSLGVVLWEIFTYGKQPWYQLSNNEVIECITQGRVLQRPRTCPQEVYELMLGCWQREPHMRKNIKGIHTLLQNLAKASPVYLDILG

[25] = biological target: NUAK1 (human) (UniProt O60285); settings: compound 0.5 µM; ATP 10 µM
[26] = biological target: PAK7 (human) (UniProt Q9P286); settings: compound 0.5 µM; ATP 10 µM
[27] = biological target: PASK (human) (UniProt Q96RG2); settings: compound 0.5 µM; ATP 10 µM
Chain of PASK (human) (Q96RG2 whole entry, looked up): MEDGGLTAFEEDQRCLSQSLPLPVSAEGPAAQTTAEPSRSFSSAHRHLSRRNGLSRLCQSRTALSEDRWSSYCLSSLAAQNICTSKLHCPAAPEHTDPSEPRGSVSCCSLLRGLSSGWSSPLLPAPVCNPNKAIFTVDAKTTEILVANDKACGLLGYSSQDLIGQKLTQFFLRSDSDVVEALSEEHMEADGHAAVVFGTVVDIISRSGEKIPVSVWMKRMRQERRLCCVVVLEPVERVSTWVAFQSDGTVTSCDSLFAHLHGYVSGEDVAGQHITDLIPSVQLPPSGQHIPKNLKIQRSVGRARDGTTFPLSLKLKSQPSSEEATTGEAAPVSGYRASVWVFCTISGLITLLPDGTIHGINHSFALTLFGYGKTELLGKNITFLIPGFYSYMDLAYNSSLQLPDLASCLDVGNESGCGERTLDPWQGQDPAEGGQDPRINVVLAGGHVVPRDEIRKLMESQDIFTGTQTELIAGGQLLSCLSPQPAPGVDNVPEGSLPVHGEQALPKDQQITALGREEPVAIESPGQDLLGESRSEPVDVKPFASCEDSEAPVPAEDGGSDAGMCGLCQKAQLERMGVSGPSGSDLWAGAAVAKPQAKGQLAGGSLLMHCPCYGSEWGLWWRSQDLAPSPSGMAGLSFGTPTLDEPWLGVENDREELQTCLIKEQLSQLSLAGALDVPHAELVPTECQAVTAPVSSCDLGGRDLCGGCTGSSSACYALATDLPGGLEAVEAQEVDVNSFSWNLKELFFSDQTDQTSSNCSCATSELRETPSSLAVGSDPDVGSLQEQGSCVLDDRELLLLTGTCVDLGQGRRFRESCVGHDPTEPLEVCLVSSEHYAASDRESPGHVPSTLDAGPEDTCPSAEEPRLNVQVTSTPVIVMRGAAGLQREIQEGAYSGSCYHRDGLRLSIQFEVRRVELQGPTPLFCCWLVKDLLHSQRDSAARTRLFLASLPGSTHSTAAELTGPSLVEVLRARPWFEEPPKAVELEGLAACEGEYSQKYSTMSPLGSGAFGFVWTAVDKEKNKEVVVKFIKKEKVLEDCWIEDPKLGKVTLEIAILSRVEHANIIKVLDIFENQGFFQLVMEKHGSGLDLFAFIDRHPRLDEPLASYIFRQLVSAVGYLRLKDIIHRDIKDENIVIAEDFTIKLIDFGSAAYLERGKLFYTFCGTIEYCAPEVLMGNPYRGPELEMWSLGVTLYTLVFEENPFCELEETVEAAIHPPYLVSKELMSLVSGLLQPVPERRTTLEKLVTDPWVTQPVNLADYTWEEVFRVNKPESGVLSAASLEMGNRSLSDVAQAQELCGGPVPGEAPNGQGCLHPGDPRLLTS

[28] = biological target: PKN1 (human) (UniProt Q16512); settings: compound 0.5 µM; ATP 10 µM
Chain of PKN1 (human) (Q16512 whole entry, looked up): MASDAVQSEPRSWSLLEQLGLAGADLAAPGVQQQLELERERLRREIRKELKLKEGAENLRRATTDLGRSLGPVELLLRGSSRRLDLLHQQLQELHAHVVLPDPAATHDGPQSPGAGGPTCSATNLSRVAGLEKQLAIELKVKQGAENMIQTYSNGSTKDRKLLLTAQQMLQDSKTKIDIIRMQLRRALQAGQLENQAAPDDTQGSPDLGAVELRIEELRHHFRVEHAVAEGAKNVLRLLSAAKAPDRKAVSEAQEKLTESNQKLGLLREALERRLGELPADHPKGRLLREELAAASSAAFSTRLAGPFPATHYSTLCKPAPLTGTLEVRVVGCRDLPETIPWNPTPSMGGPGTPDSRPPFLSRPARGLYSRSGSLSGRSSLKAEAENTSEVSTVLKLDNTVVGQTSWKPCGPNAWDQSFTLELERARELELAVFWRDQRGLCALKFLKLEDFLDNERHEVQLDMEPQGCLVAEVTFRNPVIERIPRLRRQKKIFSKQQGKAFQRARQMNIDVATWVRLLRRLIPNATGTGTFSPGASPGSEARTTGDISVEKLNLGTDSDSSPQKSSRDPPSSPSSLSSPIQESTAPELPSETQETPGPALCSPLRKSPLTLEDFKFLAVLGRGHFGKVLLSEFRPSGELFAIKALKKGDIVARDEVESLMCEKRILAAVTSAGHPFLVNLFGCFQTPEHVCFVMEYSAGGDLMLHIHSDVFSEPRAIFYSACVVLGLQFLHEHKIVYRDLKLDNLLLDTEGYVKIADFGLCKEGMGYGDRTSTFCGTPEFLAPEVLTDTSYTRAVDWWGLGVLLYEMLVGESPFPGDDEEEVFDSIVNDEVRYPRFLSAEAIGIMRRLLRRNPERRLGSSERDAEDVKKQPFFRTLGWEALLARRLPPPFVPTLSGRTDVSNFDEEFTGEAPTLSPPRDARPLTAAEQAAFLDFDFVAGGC

[29] = biological target: PRKACA (human) (UniProt P17612); settings: compound 0.5 µM
[30] = biological target: PRKD1 (human) (UniProt Q15139); settings: compound 0.5 µM; ATP 10 µM
[31] = biological target: RAF1 (human) (UniProt P04049); settings: compound 0.5 µM; ATP 10 µM
[32] = biological target: RPS6KA1 KD1 KD2 (human) (UniProt Q15418); settings: compound 0.5 µM; ATP 10 µM
[33] = biological target: RPS6KA6 KD1 KD2 (human) (UniProt Q9UK32); settings: compound 0.5 µM; ATP 10 µM
[34] = biological target: RPS6KB1 (human) (UniProt P23443); settings: compound 0.5 µM; ATP 10 µM
[35] = biological target: STK10 (human) (UniProt O94804); settings: compound 0.5 µM; ATP 10 µM
[36] = biological target: STK16 (human) (UniProt O75716); settings: compound 0.5 µM; ATP 10 µM
[37] = biological target: TAOK1 (human) (UniProt Q7L7X3); settings: compound 0.5 µM; ATP 10 µM
[38] = biological target: TAOK3 (human) (UniProt Q9H2K8); settings: compound 0.5 µM; ATP 10 µM
Chain of TAOK3 (human) (Q9H2K8 whole entry, looked up): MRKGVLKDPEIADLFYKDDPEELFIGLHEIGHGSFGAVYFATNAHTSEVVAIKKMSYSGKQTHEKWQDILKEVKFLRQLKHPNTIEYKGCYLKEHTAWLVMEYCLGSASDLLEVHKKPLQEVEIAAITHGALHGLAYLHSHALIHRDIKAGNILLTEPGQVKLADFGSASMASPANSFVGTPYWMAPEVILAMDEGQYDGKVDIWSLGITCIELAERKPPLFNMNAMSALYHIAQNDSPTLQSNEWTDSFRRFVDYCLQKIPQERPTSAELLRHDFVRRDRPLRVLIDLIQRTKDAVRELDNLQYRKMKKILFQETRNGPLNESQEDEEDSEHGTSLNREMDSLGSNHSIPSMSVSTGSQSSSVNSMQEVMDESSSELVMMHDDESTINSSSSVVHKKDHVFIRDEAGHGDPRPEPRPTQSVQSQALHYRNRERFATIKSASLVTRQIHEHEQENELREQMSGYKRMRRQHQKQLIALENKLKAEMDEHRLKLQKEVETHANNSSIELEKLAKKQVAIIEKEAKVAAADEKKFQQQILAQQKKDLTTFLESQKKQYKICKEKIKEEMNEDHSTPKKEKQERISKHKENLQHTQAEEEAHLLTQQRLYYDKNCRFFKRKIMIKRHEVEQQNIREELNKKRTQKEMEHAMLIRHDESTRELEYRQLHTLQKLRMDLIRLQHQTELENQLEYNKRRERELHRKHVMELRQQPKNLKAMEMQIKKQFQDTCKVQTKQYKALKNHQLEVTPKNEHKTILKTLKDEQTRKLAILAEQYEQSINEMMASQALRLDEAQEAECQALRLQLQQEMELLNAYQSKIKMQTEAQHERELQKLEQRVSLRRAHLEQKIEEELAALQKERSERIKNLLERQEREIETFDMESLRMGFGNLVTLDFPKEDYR

[39] = biological target: TNK2 (human) (UniProt Q07912); settings: compound 0.5 µM; ATP 10 µM
[40] = biological target: TSSK1B (human) (UniProt Q9BXA7); settings: compound 0.5 µM; ATP 10 µM
[41] = biological target: TXK (human) (UniProt P42681); settings: compound 0.5 µM; ATP 10 µM
[42] = biological target: ZAP70 (human) (UniProt P43403); settings: compound 0.5 µM; ATP 10 µM

SMILES: O=c1[nH]c2ccccc2n1C1CCN(Cc2ccc(-c3nc4cc5[nH]cnc5cc4nc3-c3ccccc3)cc2)CC1
- residual activity [1]: 98.2%
- residual activity [2]: 96.8%
- residual activity [3]: 96.8%
- residual activity [4]: 117%
- residual activity [5]: 85%
- residual activity [6]: 91.9%
- residual activity [7]: 92.8%
- residual activity [8]: 101%
- residual activity [9]: 101%
- residual activity [10]: 109%
- residual activity [11]: 104%
- residual activity [12]: 102%
- residual activity [13]: 97.2%
- residual activity [14]: 92.2%
- residual activity [15]: 91.2%
- residual activity [16]: 102%
- residual activity [17]: 110%
- residual activity [18]: 103%
- residual activity [19]: 105%
- residual activity [20]: 96%
- residual activity [21]: 99.7%
- residual activity [22]: 103%
- residual activity [23]: 86.4%
- residual activity [24]: 99.4%
- residual activity [25]: 103%
- residual activity [26]: 110%
- residual activity [27]: 110%
- residual activity [28]: 90.3%
- residual activity [29]: 106%
- residual activity [30]: 94.7%
- residual activity [31]: 94.7%
- residual activity [32]: 101%
- residual activity [33]: 109%
- residual activity [34]: 101%
- residual activity [35]: 92.6%
- residual activity [36]: 99.5%
- residual activity [37]: 102%
- residual activity [38]: 111%
- residual activity [39]: 92.3%
- residual activity [40]: 96.5%
- residual activity [41]: 104%
- residual activity [42]: 97.3%

SMILES: COc1cccc(-c2cc(=O)c3ccccc3o2)c1N
- residual activity [1]: 93.9%
- residual activity [2]: 96.8%
- residual activity [3]: 97.4%
- residual activity [4]: 98.8%
- residual activity ([5]; ATP 10 µM): 99.8%
- residual activity ([6]; ATP 10 µM): 101%
- residual activity [7]: 86.3%
- residual activity [8]: 97.7%
- residual activity [9]: 94%
- residual activity [10]: 98.6%
- residual activity [11]: 88%
- residual activity [12]: 96.8%
- residual activity [13]: 104%
- residual activity [14]: 87.7%
- residual activity ([15]; ATP 10 µM): 91.3%
- residual activity [16]: 106%
- residual activity [17]: 96.1%
- residual activity [18]: 101%
- residual activity [19]: 81.7%
- residual activity [20]: 85.7%
- residual activity [21]: 76.2%
- residual activity [22]: 86.7%
- residual activity [23]: 92.9%
- residual activity [24]: 65.4%
- residual activity [25]: 98.1%
- residual activity [26]: 99.7%
- residual activity [27]: 86.1%
- residual activity [28]: 102%
- residual activity ([29]; ATP 10 µM): 87.7%
- residual activity [30]: 103%
- residual activity [31]: 91.5%
- residual activity [32]: 92.7%
- residual activity [33]: 95.2%
- residual activity [34]: 98%
- residual activity [35]: 90.4%
- residual activity [36]: 95.4%
- residual activity [37]: 77.9%
- residual activity [38]: 77%
- residual activity [39]: 79.9%
- residual activity [40]: 82.4%
- residual activity [41]: 94.6%
- residual activity [42]: 107%
